The text below walks through data of patent publication US10676509B2, “Surface-immobilized antimicrobial peptoids” (Northwestern University, priority 2008, dated 2020).

Experiment [1] deals with E. coli. The format is cell-based, Escherichia coli (ATCC 35218). Particulars: 16 h. The protocol:
(§1) The polymers were initially tested to determine their antibacterial properties in the solution state. Antibacterial activities of the compounds were tested using the methods described above for both Gram-negative and Gram-positive bacterial strains.
(§2) The minimum inhibitory concentration (MIC) for each polymer was determined according to Clinical Laboratory Standards Institute (CLSI) broth microdilution protocols (M7-A6). The procedure explained previously was followed (Chongsiriwatana et al., supra); briefly, serial dilutions of the polymers were prepared in Mueller-Hinton broth (MHB) in 96-well microtiter plates and bacterial inoculum in MHB was added to each well (˜5.0×10^4 CFU/well). Optical density was monitored at 590 nm for 16 h at 35° C.

Experiment [2] deals with B. subtilis. The format is cell-based, Bacillus subtilis (ATCC 6633). Conditions: 16 h. The protocol: as §1, §2
Experiment [3] relates to S. epidermidis. The format is cell-based, Staphylococcus epidermidis RP62A (ATCC 12228). Particulars: 16 h. As to the method:
as §1, §2

The test system of experiment [4] is P. aeruginosa. The experiment is classed as cell-based, Pseudomonas aeruginosa (ATCC 700829). Conditions: 16 h. As to the method: as §1, §2
In experiment [5] the target is T1, fibrinogen from human plasma (Homo sapiens, UniProt P02671+P02675+P02679).
T1 construct: fibrinogen from human plasma was dissolved at 3 mg/ml concentrations in buffer B; purchased Aldrich (Milwaukee, Wis.); host or cells: human plasma
T1 sequence (P02671 20-644 isoform P02671-2 limits assumed): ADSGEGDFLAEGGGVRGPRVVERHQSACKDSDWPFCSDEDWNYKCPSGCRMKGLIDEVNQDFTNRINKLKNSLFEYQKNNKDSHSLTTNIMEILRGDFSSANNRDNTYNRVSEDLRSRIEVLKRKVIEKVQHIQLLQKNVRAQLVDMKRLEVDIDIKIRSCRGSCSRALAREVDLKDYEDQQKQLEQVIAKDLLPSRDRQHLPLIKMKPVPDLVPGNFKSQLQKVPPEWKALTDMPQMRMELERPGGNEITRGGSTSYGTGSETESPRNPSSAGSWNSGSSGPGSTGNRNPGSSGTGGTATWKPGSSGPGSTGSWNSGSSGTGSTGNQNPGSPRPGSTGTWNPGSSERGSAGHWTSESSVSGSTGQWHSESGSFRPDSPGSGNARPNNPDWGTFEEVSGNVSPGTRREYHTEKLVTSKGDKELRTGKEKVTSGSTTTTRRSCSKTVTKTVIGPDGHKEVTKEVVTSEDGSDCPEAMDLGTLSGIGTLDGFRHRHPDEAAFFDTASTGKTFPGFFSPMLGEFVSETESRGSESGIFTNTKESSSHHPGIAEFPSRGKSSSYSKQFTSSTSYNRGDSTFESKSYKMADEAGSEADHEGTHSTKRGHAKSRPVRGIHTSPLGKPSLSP
T1 sequence (P02675 31-491): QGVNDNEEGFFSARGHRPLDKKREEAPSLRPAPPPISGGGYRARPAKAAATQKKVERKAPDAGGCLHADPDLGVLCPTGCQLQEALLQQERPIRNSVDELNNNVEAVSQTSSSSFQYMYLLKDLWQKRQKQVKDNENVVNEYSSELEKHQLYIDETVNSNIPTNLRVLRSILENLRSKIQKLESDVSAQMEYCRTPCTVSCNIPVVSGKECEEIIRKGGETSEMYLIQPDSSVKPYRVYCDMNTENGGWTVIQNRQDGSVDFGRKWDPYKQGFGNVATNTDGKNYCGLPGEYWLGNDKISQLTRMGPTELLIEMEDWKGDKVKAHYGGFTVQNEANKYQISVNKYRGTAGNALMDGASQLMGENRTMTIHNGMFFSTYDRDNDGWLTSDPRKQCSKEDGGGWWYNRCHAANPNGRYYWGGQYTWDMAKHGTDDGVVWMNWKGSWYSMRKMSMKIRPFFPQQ
T1 sequence (P02679 27-437 isoform P02679-2 limits assumed): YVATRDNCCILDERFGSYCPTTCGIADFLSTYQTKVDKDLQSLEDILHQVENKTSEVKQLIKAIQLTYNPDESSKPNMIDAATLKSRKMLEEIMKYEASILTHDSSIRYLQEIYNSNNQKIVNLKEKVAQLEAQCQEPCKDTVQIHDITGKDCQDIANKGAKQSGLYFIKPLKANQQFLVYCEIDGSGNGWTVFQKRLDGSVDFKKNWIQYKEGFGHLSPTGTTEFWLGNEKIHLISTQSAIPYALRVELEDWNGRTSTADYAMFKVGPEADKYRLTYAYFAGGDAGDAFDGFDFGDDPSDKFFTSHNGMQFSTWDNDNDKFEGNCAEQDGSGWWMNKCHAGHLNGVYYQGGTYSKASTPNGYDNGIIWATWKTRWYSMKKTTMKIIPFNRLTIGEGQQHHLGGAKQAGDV
Briefly: Short-term fibrinogen adsorption on modified TiO2 sensors using OWLS. Particulars: Table 7, fibrinogen 3 mg/ml, 20 min, 37° C., mean ± SD. As to the method: Lyophilized human serum was reconstituted in water to reach the typical concentration in blood; fibrinogen from human plasma was dissolved at 3 mg/ml concentrations in buffer B (10 mM HEPES, 150 mM NaCl, pH=7.4). For in situ protein-adsorption experiments, TiO2 coated waveguide sensors were modified with peptidomimetic polymers as explained previously. After equilibration of the OWLS baseline in buffer B, protein solution was injected and allowed to adsorb for 20 min at 37° C. before rinsing with buffer B. A refractive index value of 1.331 27 was used for buffer B, and a standard value of 0.182 cm^3/g was used for dn/dc in the protein-adsorption calculations.

Non-standard residues stand in square brackets, D forms with d. Residues, ends and D or L forms follow the SMILES beside them. Dopa = N[C@@H](Cc1ccc(O)c(O)c1)C(=O)O; Nme = COCCNCC(=O)O Where only a bound is given, the exact number is not on record here.

As to `COCCN(CC(=O)N(CCOC)CC(=O)N(CCOC)CC(=O)N(CCOC)CC(=O)N(CCOC)CC(=O)N(CCOC)CC(=O)N(CCOC)CC(=O)N(CCOC)CC(=O)N(CCOC)CC(=O)N(CCOC)CC(=O)N(CCOC)CC(=O)N(CCOC)CC(=O)N(CCOC)CC(=O)N(CCOC)CC(=O)N(CCOC)CC(=O)N(CCOC)CC(=O)N(CCOC)CC(=O)N(CCOC)CC(=O)N(CCOC)CC(=O)N(CCOC)CC(=O)N[C@@H](Cc1ccc(O)c(O)c1)C(=O)N[C@@H](CCCCN)C(=O)N[C@@H](Cc1ccc(O)c(O)c1)C(=O)N[C@@H](CCCCN)C(=O)N[C@@H](Cc1ccc(O)c(O)c1)C(N)=O)C(C)=O` [PMP1, (Nme)20-(DOPA-Lys)2-DOPA] (Ac-[Nme][Nme][Nme][Nme][Nme][Nme][Nme][Nme][Nme][Nme][Nme][Nme][Nme][Nme][Nme][Nme][Nme][Nme][Nme][Nme][Dopa]K[Dopa]K[Dopa]-NH2; N-terminus and C-terminus assumed), the “MIC E. coli” value in experiment [1] was over 100 µM. For the same molecule, the “MIC B. subtilis” value in experiment [2] was over 100 µM. Also, the “MIC S. epidermidis” value in experiment [3] was over 100 µM. For the same molecule, the “MIC P. aeruginosa” value in experiment [4] is over 100 µM. The “Adsorbed mass Fibrinogen” value in experiment [5] is 7 ± 3 ng/cm^2.
